Assay results from patent US12606541B2, “PPARg modulators and methods of use” (Eisai R&D Management Co., Ltd., priority 2020, dated 2026).

The molecules below were run against T1, His6-TEV-PPARγ-(234-505) (Homo sapiens, UniProt P37231) (assay: TR-FRET Assay to Measure Co-R Peptide Recruitment to PPARγ). Conditions: Co-R peptide recruitment to PPARγ; read-out: TR-FRET AC50.
T1 construct: The His6-TEV-PPARγ-(234-505) protein for assay was expressed and purified; TEV cleavage site (N); made in house
T1 sequence (P37231 234-505): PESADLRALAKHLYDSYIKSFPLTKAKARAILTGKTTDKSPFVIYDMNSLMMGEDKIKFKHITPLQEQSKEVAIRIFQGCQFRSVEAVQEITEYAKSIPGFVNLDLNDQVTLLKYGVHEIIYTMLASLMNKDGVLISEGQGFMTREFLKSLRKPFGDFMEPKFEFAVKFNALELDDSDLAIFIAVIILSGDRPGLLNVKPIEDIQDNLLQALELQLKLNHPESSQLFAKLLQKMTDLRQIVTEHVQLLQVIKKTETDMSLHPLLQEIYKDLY
Type: biochemical
In short: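 His-tagged PPARγ (or controls) was preincubated with compound for 20 minutes at room temperature, then 5 nM anti-His terbium antibody and 200 nM FITC-labeled SMRT-ID2 corepressor peptide (final) were added for a further hour. TR-FRET signal was normalized to percent response using 500 nM T0070907 and DMSO controls.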

Row | SMILES | AC50 [nM]
1 | COc1cc(-c2cc(C(=O)N3CCC(C(=O)NCc4nc5c(cnn5C)c(=O)[nH]4)CC3)n[nH]2)c(Cl)cn1 [1-[5-(5-chloro-2-methoxypyridin-4-yl)-1H-pyrazole-3-carbonyl]-N-({1-methyl-4-oxo-1H,4H,5H-pyrazolo[3,4-d]pyrimidin-6-yl}methyl)piperidine-4-carboxamide] | > 1000
2 | COc1nccc(-c2cc(C(=O)N3CCC(C(=O)NC4CCC(C)CC4)CC3)n[nH]2)c1C (centres unmarked) [1-[5-(2-methoxy-3-methylpyridin-4-yl)-1H-pyrazole-3-carbonyl]-N-(4-methylcyclohexyl)piperidine-4-carboxamide] | > 1000
3 | O=C(c1cc(-c2ccncc2)[nH]n1)N1CCC(C(=O)N2CCN(c3ccccc3)CC2)CC1 [1-phenyl-4-{1-[5-(pyridin-4-yl)-1H-pyrazole-3-carbonyl]piperidine-4-carbonyl}piperazine] | > 1000
4 | COc1cc(-c2cc(C(=O)N3CCC(C(=O)NCc4ccccc4C#N)CC3)n[nH]2)c(Cl)cn1 [1-[5-(5-chloro-2-methoxypyridin-4-yl)-1H-pyrazole-3-carbonyl]-N-[(2-cyanophenyl)methyl]piperidine-4-carboxamide] | > 1000
5 | CC1CCC(NC(=O)C2CCN(C(=O)c3cc(-c4ccncc4F)[nH]n3)CC2)CC1 (centres unmarked) [1-[5-(3-fluoropyridin-4-yl)-1H-pyrazole-3-carbonyl]-N-(4-methylcyclohexyl)piperidine-4-carboxamide] | > 1000
6 | COc1cc(-c2cc(C(=O)N3CCC(C(=O)NCc4noc(C)n4)CC3)n[nH]2)c(Cl)cn1 [1-[5-(5-chloro-2-methoxypyridin-4-yl)-1H-pyrazole-3-carbonyl]-N-[(5-methyl-1,2,4-oxadiazol-3-yl)methyl]piperidine-4-carboxamide] | > 1000
7 | COc1cc(-c2cc(C(=O)N3CCC(C(=O)N[C@H]4CCCc5cccnc54)CC3)n[nH]2)c(Cl)cn1 [1-[5-(5-chloro-2-methoxypyridin-4-yl)-1H-pyrazole-3-carbonyl]-N-[(8S)-5,6,7,8-tetrahydroquinolin-8-yl]piperidine-4-carboxamide] | > 1000
8 | COc1cc(-c2cc(C(=O)N3CCC(C(=O)NC4CCN(Cc5ccccc5)C4)CC3)n[nH]2)c(Cl)cn1 (centres unmarked) [N-(1-benzylpyrrolidin-3-yl)-1-[5-(5-chloro-2-methoxypyridin-4-yl)-1H-pyrazole-3-carbonyl]piperidine-4-carboxamide] | > 1000
9 | CCC1CCC(NC(=O)C2CCN(C(=O)c3cc(-c4ccnc(OC)c4)[nH]n3)CC2)CC1 (centres unmarked) | > 1000
10 | COc1cc(-c2cc(C(=O)N3CCC(OCC(F)(F)F)(C(=O)NCc4cccc(Cl)c4)CC3)n[nH]2)c(Cl)cn1 [1-[5-(5-chloro-2-methoxypyridin-4-yl)-1H-pyrazole-3-carbonyl]-N-[(3-chlorophenyl)methyl]-4-(2,2,2-trifluoroethoxy)piperidine-4-carboxamide] | > 1000
11 | COc1cc(-c2cc(C(=O)N3CCC(C(=O)NC45CCC(O)(CC4)C5)CC3)n[nH]2)c(F)cn1 | > 1000
12 | COc1cc(-c2cc(C(=O)N3CC[C@H](C(=O)N[C@@H]4CN(c5ccc(C)nc5)C[C@@H]4F)CC34CC4)n[nH]2)c(F)cn1 [(7S)—N-[(3R,4S)-4-fluoro-1-(6-methylpyridin-3-yl)pyrrolidin-3-yl]-4-[5-(5-fluoro-2-methoxypyridin-4-yl)-1H-pyrazole-3-carbonyl]-4-azaspiro[2.5]octane-7-carboxamide] | > 1000
13 | COc1cc(-c2cc(C(=O)N3CCC(C(=O)NCc4ccon4)CC3)n[nH]2)c(Cl)cn1 [1-[5-(5-chloro-2-methoxypyridin-4-yl)-1H-pyrazole-3-carbonyl]-N-[(1,2-oxazol-3-yl)methyl]piperidine-4-carboxamide] | > 1000
14 | CCC1CCC(NC(=O)C2CCN(C(=O)c3cc(-c4ccncc4)[nH]n3)CC2)CC1 (centres unmarked) | > 1000
15 | COc1cc(-c2cc(C(=O)N3CCC(C(=O)NCc4cn5ccnc5cn4)CC3)n[nH]2)c(Cl)cn1 [1-[5-(5-chloro-2-methoxypyridin-4-yl)-1H-pyrazole-3-carbonyl]-N-({imidazo[1,2-a]pyrazin-6-yl}methyl)piperidine-4-carboxamide] | > 1000
16 | COc1cc(-c2cc(C(=O)N3CCC(C(=O)NCC4CCCOC4)CC3)n[nH]2)c(Cl)cn1 (centres unmarked) [1-[5-(5-chloro-2-methoxypyridin-4-yl)-1H-pyrazole-3-carbonyl]-N-[(oxan-3-yl)methyl]piperidine-4-carboxamide] | > 1000
17 | COc1cc(-c2cc(C(=O)N3CCC(C(=O)NC4CCC(C#N)CC4)CC3)n[nH]2)c(Cl)cn1 (centres unmarked) [1-[5-(5-chloro-2-methoxypyridin-4-yl)-1H-pyrazole-3-carbonyl]-N-(4-cyanocyclohexyl)piperidine-4-carboxamide] | > 1000
18 | COc1cc(-c2cc(C(=O)N3CCC(C(=O)NCc4cccc(Cl)c4)CC3)n[nH]2)c(C)cn1 [N-[(3-chlorophenyl)methyl]-1-[5-(2-methoxy-5-methylpyridin-4-yl)-1H-pyrazole-3-carbonyl]piperidine-4-carboxamide] | > 1000
19 | COc1cc(-c2cc(C(=O)N3CCC(C(=O)NCC4CC(F)(F)C(=O)N4)CC3)n[nH]2)c(Cl)cn1 (centres unmarked) [1-[5-(5-chloro-2-methoxypyridin-4-yl)-1H-pyrazole-3-carbonyl]-N-[(4,4-difluoro-5-oxopyrrolidin-2-yl)methyl]piperidine-4-carboxamide] | > 1000
20 | COc1cc(-c2cc(C(=O)N3CCC(C(=O)NCC4OCCCO4)CC3)n[nH]2)c(Cl)cn1 [1-[5-(5-chloro-2-methoxypyridin-4-yl)-1H-pyrazole-3-carbonyl]-N-[(1,3-dioxan-2-yl)methyl]piperidine-4-carboxamide] | > 1000
21 | COc1cc(-c2cc(C(=O)N3CCC(C(=O)NC(C)c4cnn(C)c4)CC3)n[nH]2)c(Cl)cn1 (centres unmarked) | > 1000
22 | COc1cc(-c2cc(C(=O)N3CCC(C(=O)NCC4(F)COC4)CC3)n[nH]2)c(Cl)cn1 [1-[5-(5-chloro-2-methoxypyridin-4-yl)-1H-pyrazole-3-carbonyl]-N-[(3-fluorooxetan-3-yl)methyl]piperidine-4-carboxamide] | > 1000
23 | CNC(=O)CN1CCN(C(=O)C2CCN(C(=O)c3cc(-c4ccncc4)[nH]n3)CC2)CC1 [N-methyl-2-(4-{1-[5-(pyridin-4-yl)-1H-pyrazole-3-carbonyl]piperidine-4-carbonyl}piperazin-1-yl)acetamide] | > 1000

Second part, the molecule after the results:

Row | AC50 [nM] | SMILES
24 | > 1000 | CN(C)CCCNC(=O)C1CCN(C(=O)c2cc(-c3ccncc3)[nH]n2)CC1 [N-[3-(dimethylamino)propyl]-1-[5-(pyridin-4-yl)-1H-pyrazole-3-carbonyl]piperidine-4-carboxamide]
25 | > 1000 | COc1cc(-c2cc(C(=O)N3CCC[C@@H](C(=O)NCc4cccc(Cl)c4)C3)n[nH]2)c(F)cn1 [(3R)—N-[(3-chlorophenyl)methyl]-1-[5-(5-fluoro-2-methoxypyridin-4-yl)-1H-pyrazole-3-carbonyl]piperidine-3-carboxamide]
26 | > 1000 | O=C(NCc1ccc2c(c1)OCO2)C1CCCN(C(=O)c2cc(-c3ccncc3)[nH]n2)C1 (centres unmarked) [N-[(2H-1,3-benzodioxol-5-yl)methyl]-1-[5-(pyridin-4-yl)-1H-pyrazole-3-carbonyl]piperidine-3-carboxamide]
27 | > 1000 | Cc1ccc(NC(=O)C2CCN(C(=O)c3cc(-c4ccncc4)[nH]n3)CC2)nn1 [N-(6-methylpyridazin-3-yl)-1-[5-(pyridin-4-yl)-1H-pyrazole-3-carbonyl]piperidine-4-carboxamide]
28 | > 1000 | COc1cc(Cl)ccc1CNC(=O)C1CCN(C(=O)c2cc(-c3ccncc3)[nH]n2)CC1 [N-[(4-chloro-2-methoxyphenyl)methyl]-1-[5-(pyridin-4-yl)-1H-pyrazole-3-carbonyl]piperidine-4-carboxamide]
29 | > 1000 | COc1ccc(OC)c(CNC(=O)C2CCN(C(=O)c3cc(-c4ccncc4)[nH]n3)CC2)c1 [N-[(2,5-dimethoxyphenyl)methyl]-1-[5-(pyridin-4-yl)-1H-pyrazole-3-carbonyl]piperidine-4-carboxamide]
30 | > 1000 | O=C(c1cc(-c2ccncc2)[nH]n1)N1CCC(C(=O)N2CC[C@@H](O)C2)CC1 [(3R)-1-{1-[5-(pyridin-4-yl)-1H-pyrazole-3-carbonyl]piperidine-4-carbonyl}pyrrolidin-3-ol]
31 | > 1000 | COc1cccc(CNC(=O)C2CCN(C(=O)c3cc(-c4ccncc4)[nH]n3)CC2)c1 [N-[(3-methoxyphenyl)methyl]-1-[5-(pyridin-4-yl)-1H-pyrazole-3-carbonyl]piperidine-4-carboxamide]
32 | > 1000 | Cc1ccc(NC(=O)C2CCN(C(=O)c3cc(-c4ccncc4)[nH]n3)CC2)cc1Cl [N-(3-chloro-4-methylphenyl)-1-[5-(pyridin-4-yl)-1H-pyrazole-3-carbonyl]piperidine-4-carboxamide]
33 | > 1000 | O=C(NCc1ccc(Cl)cc1)C1CCN(C(=O)c2cc(-c3ccncc3)[nH]n2)CC1 [N-[(4-chlorophenyl)methyl]-1-[5-(pyridin-4-yl)-1H-pyrazole-3-carbonyl]piperidine-4-carboxamide]
34 | > 1000 | O=C(NC1CCOCC1)C1CCN(C(=O)c2cc(-c3ccncc3)[nH]n2)CC1 [N-(oxan-4-yl)-1-[5-(pyridin-4-yl)-1H-pyrazole-3-carbonyl]piperidine-4-carboxamide]
35 | > 1000 | O=C(NC1CCCCC1)C1CCN(C(=O)c2cc(-c3ccncc3)[nH]n2)CC1 [N-cyclohexyl-1-[5-(pyridin-4-yl)-1H-pyrazole-3-carbonyl]piperidine-4-carboxamide]
